Data as given in ChEMBL document CHEMBL6127076, “Scaffold hopping-driven optimization for the identification of NLRP3 inhibitors as potential gout therapeutics” (Eur J Med Chem, 2024).
In brackets after ≈: the same amount, converted by molar mass. Values belong to the compound of their own block, whether it stands above or below them. Activity calls are given as the source filed them. The calls are words filed in the database; no cut-off is given here.

Assays:
[1] = biological target: T1, Cytochrome P450 1A2 (Homo sapiens, UniProt P05177); assay: Inhibition of CYP1A2 (unknown origin); format: ADME
T1 sequence (P05177 whole entry): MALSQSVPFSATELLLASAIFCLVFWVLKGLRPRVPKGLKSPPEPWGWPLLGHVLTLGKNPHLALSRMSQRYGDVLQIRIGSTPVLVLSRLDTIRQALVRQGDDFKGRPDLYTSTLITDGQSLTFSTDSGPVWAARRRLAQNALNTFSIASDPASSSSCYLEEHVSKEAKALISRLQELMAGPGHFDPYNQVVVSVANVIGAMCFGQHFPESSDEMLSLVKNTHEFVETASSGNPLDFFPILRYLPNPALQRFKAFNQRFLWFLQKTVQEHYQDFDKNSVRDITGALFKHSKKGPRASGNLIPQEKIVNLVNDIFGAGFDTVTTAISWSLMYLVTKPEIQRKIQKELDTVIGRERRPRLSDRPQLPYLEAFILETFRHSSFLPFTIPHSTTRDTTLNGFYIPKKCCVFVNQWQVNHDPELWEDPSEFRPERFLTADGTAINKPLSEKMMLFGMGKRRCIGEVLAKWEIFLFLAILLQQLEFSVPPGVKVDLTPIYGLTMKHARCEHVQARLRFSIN

[2] = biological target: Cytochrome P450 2C9 (Homo sapiens, UniProt P11712); assay: Inhibition of CYP2C9 (unknown origin); format: ADME
[3] = biological target: Cytochrome P450 2C19 (Homo sapiens, UniProt P33261); assay: Inhibition of CYP2C19 (unknown origin); format: ADME
[4] = Aqueous solubility of the compound in pH 7.4 PBS buffer; format: physicochemical
[5] = Inhibition of NLRP3 inflammasome pathway in human THP-1 cells assessed as inhibition of LPS/MSU-induced IL-1beta secretion
[6] = biological target: Cytochrome P450 2D6 (Homo sapiens, UniProt P10635); assay: Inhibition of CYP2D6 (unknown origin); format: ADME
[7] = biological target: T2, Cytochrome P450 3A4 (Homo sapiens, UniProt P08684); assay: Inhibition of CYP3A4 (unknown origin) using testosterone as substrate; format: ADME
[8] = system: HEK-293T; assay: Cytotoxicity against human HEK293T cells assessed as cell viability at 50 uM measured after 24 hrs by CCK8 assay; format: toxicity, cell-based
[9] = biological target: T2, Cytochrome P450 3A4; assay: Inhibition of CYP3A4 (unknown origin) using midazolam as substrate; format: ADME
[10] = Plasma stability in human plasma assessed as compound remaining measured after 120 mins; format: ADME, cell-free; settings: read-out: Stability
[11] = Plasma stability in human plasma assessed as compound remaining measured after 30 mins; format: ADME, cell-free; settings: read-out: Stability
[12] = Plasma stability in human plasma assessed as compound remaining measured after 15 mins; format: ADME, cell-free; settings: read-out: Stability
[13] = Plasma stability in human plasma assessed as compound remaining measured immediately; format: ADME, cell-free; settings: read-out: Stability
[14] = Plasma stability in human plasma assessed as compound remaining measured after 5 mins; format: ADME, cell-free; settings: read-out: Stability
[15] = Plasma stability in human plasma assessed as compound remaining measured after 60 mins; format: ADME, cell-free; settings: read-out: Stability
[16] = system: Mus musculus; assay: Anti-inflammatory activity against MSU-induced peritonitis mouse model assessed as reduction in IL-1beta secretion in peritoneal cavity at 10 mg/kg, treated by gavage 30 mins before MSU induction measured after 6 hrs modeling by ELISA; format: functional, organism-based
[17] = Plasma stability in human plasma assessed as half life; format: ADME, cell-free

T2 sequence (P08684 whole entry): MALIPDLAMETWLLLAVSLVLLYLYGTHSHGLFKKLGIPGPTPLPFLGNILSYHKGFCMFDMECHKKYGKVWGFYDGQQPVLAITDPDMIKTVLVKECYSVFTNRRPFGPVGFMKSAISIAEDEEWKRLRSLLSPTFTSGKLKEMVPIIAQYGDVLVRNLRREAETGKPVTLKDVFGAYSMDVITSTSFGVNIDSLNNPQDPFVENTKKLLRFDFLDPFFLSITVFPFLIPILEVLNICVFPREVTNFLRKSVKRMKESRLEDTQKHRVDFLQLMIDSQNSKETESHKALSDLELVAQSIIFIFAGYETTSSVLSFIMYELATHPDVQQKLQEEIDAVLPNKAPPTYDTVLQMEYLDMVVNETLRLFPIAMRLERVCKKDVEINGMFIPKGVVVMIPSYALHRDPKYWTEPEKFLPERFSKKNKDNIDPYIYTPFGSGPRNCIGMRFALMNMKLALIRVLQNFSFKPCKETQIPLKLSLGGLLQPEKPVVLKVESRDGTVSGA
Sequence of Cytochrome P450 2C19 (P33261 whole entry): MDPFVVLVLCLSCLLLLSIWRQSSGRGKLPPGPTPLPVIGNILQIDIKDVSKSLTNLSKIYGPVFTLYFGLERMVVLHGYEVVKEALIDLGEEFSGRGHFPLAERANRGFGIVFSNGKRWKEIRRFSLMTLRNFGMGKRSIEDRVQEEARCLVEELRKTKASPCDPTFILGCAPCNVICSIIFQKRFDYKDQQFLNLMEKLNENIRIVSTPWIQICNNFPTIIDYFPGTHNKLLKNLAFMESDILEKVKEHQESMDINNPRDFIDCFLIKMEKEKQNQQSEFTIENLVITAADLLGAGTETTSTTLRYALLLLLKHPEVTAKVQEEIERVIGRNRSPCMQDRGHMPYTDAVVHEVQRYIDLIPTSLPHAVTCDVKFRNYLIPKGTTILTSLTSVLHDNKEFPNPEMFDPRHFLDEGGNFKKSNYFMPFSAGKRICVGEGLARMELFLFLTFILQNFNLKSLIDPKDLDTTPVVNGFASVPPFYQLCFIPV
Sequence of Cytochrome P450 2D6 (P10635 whole entry): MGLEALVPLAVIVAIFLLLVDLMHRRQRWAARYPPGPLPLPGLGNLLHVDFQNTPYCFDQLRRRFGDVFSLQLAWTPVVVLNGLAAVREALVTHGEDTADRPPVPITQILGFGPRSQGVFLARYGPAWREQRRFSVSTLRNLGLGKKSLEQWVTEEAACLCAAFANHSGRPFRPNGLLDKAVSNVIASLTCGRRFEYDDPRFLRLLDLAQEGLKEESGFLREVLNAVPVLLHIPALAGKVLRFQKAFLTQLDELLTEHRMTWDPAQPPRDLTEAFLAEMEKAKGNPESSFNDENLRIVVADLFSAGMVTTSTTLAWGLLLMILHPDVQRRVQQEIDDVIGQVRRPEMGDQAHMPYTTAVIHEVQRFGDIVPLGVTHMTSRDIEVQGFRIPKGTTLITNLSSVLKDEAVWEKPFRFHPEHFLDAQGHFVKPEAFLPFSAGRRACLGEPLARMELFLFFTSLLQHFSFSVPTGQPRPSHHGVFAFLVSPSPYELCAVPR
Sequence of Cytochrome P450 2C9 (P11712 whole entry): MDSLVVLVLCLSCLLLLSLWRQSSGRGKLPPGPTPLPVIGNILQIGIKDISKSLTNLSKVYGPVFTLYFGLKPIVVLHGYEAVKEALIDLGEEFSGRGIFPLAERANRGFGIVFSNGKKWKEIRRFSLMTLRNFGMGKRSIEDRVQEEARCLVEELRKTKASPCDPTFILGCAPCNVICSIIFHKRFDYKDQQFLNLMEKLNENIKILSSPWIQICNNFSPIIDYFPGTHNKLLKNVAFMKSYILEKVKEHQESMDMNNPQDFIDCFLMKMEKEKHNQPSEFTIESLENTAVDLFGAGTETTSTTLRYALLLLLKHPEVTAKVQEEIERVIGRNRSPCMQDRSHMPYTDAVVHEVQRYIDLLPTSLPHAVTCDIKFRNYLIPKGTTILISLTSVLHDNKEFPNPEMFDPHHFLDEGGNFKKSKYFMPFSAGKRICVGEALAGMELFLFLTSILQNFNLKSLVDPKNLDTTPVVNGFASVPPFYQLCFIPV

IC50 [1]: > 100 µM | IC50 [2]: 7.73 µM | IC50 [3]: 4.43 µM | solubility [4]: 2.56 µM (≈ 1.28 µg/mL) | IC50 [5]: 5.3 µM | IC50 [6]: > 10 µM | IC50 [7]: > 10 µM | IC50 [9]: > 10 µM | remaining at 2 h [10]: 93.3% | remaining at 0.5 h [11]: 92.3% | remaining at 0.25 h [12]: 101% | remaining at 0 min [13]: 100% | remaining at 5 min [14]: 97.2% | remaining at 1 h [15]: 101%
Compound: CC1(C)C(=O)N(c2ccc(Oc3ccccc3)cc2)C(=S)N1Cc1ccc(S(N)(=O)=O)c(F)c1
Activity [8]: Toxic

Compound: CC(C)(O)c1coc(S(=O)(=O)NC(=O)Nc2c3c(cc4c2CCC4)CCC3)c1
Activity [16]: Active

Compound: CC(C)[N+](C)(CCOC(=O)C1c2ccccc2Oc2ccccc21)C(C)C [PROPANTHELINE]
remaining at 2 h [10]: 2.91% | remaining at 0.5 h [11]: 37.4% | remaining at 0.25 h [12]: 58.5% | remaining at 5 min [14]: 88% | remaining at 1 h [15]: 10.7% | half-life [17]: 0.387 h

IC50 [5]: 1.9 µM
Compound: C=C1C(=O)[C@]23[C@H](O)[C@H]1CC[C@H]2[C@@]12CO[C@]3(O)[C@@H](O)[C@@H]1C(C)(C)CC[C@@H]2O [ORIDONIN]

IC50 [1]: > 100 µM | IC50 [2]: > 10 µM | IC50 [3]: > 10 µM | solubility [4]: 19.3 µM (≈ 8.95 µg/mL) | IC50 [5]: 6.4 µM | IC50 [6]: > 10 µM | IC50 [7]: > 10 µM | IC50 [9]: > 10 µM | remaining at 2 h [10]: 82.5% | remaining at 0.5 h [11]: 98.2% | remaining at 0.25 h [12]: 89.8% | remaining at 0 min [13]: 100% | remaining at 5 min [14]: 96.7% | remaining at 1 h [15]: 100% | half-life [17]: 10 h
Compound: CC(C)(C)c1ccc(N2C(=O)C(C)(C)N(Cc3ccc(S(N)(=O)=O)c(F)c3)C2=S)cc1
Activity [8]: Toxic

IC50 [5]: > 20 µM
Compound: CC(C)(C)c1ccc(N2C(=O)C(C)(C)N(Cc3ccc(C(=O)O)cc3)C2=S)cc1

IC50 [5]: 13 µM
Compound: COc1ccc(N2C(=O)C(C)(C)N(Cc3ccc(C(F)(F)F)cc3)C2=S)cc1

solubility [4]: 13.6 µM (≈ 3 µg/mL)
Compound: c1ccc(-c2nc[nH]c2-c2ccccc2)cc1

IC50 [1]: > 100 µM | IC50 [2]: 4.57 µM | IC50 [3]: 2.95 µM | solubility [4]: 0.017 µM (≈ 0.00626 µg/mL) | IC50 [5]: 6.9 µM | IC50 [6]: > 10 µM | IC50 [7]: > 10 µM | IC50 [9]: > 10 µM | remaining at 2 h [10]: 102% | remaining at 0.5 h [11]: 96.2% | remaining at 0.25 h [12]: 105% | remaining at 0 min [13]: 100% | remaining at 5 min [14]: 98.9% | remaining at 1 h [15]: 102%
Compound: COc1ccc(N2C(=O)C(C)(C)N(Cc3ccc(C)c(C)c3)C2=S)cc1
Activity [8]: Toxic

IC50 [5]: > 20 µM
Compound: CC(C)(C)c1ccc(N2C(=O)C(C)(C)N(Cc3ccc(C#N)c(Cl)c3)C2=S)cc1

IC50 [5]: > 20 µM
Compound: COc1ccc(N2C(=O)C(C)(C)N(Cc3ccc(C)cc3)C2=S)cc1

IC50 [5]: > 20 µM
Compound: COc1cccc(N2C(=O)C(C)(C)N(Cc3ccc(C)c(C)c3)C2=S)c1

IC50 [5]: > 20 µM
Compound: COc1ccc(N2C(=O)C(C)(C)N(Cc3cccc(C(F)(F)F)c3)C2=S)cc1

IC50 [5]: 13.9 µM
Compound: COc1ccc(CN2C(=S)N(c3ccc(C(C)(C)C)cc3)C(=O)C2(C)C)cc1F

IC50 [5]: > 20 µM
Compound: CC(C)(C)c1ccc(N2C(=O)C(C)(C)N(Cc3ccc4ncoc4c3)C2=S)cc1

IC50 [5]: 29.2 µM
Compound: COc1ccc(N2C(=O)C(C)(C)N(Cc3ccccc3C(F)(F)F)C2=S)cc1
